Experimental data published in patent publication US6706663B2, “Herbicidal 3-heterocyclic substituted benzisothiazole and benzisoxazole compounds” (Wyeth, priority 2000, dated 2004).

Key:
[1] = tested on: SAGPY (Sagittaria pygmaea); experiment: Flooded paddy, preemergence weed control; assay type: in vivo, L.; conditions: rated 3-4 weeks after treatment, 0-9 rating scale
How it was run: (§1)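 Plants were established from seed or propagating organs in flooded silt loam, with the water surface held 1.5 to 3 cm above the soil for the entire experiment. Injury was assessed visually against a control and given a 0-9 score.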

ORYSAT (Rice, Tebonnet) [2] = experiment: Postemergence herbicidal evaluation; assay type: in vivo, Oryza sativa, (L.) Tebonnet; conditions: postemergence
How it was run: (§2)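 Seedlings grown for about two weeks were sprayed postemergence and then kept under standard greenhouse care. Injury was rated visually 4–5 weeks after treatment on a 0–9 scale against untreated controls, and ratings from repeat tests were averaged.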

[3] = tested on: AMBEL (Ambrosia artemisifolia); experiment: Postemergence herbicidal evaluation; assay type: in vivo, L.; conditions: postemergence
How it was run: as §2

[4] = tested on: CHEAL (Chenopodium album); experiment: Postemergence herbicidal evaluation; assay type: in vivo, L.; conditions: postemergence
How it was run: as §2

[5] = tested on: CASOB (Cassia obtusifolia); experiment: Postemergence herbicidal evaluation; assay type: in vivo, L.; conditions: postemergence
How it was run: as §2

[6] = tested on: AMBEL (Ambrosia artemisifolia); experiment: Preemergence herbicidal evaluation; assay type: in vivo, L.; conditions: rated 4-5 weeks after treatment
How it was run: (§3)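 Seeds mixed with potting soil were planted atop about one inch of soil, then sprayed with test compound in aqueous acetone. Cups were kept in the greenhouse and rated visually 4–5 weeks after treatment on a 0–9 scale against untreated control.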

[7] = tested on: CHEAL (Chenopodium album); experiment: Preemergence herbicidal evaluation; assay type: in vivo, L.; conditions: rated 4-5 weeks after treatment
How it was run: as §3

[8] = tested on: CASOB (Cassia obtusifolia); experiment: Preemergence herbicidal evaluation; assay type: in vivo, L.; conditions: rated 4-5 weeks after treatment
How it was run: as §3

[9] = tested on: IPOHE (Ipomoea hederacea); experiment: Postemergence herbicidal evaluation; assay type: in vivo, (L.) Jacq.; conditions: postemergence
How it was run: as §2

SETVI (Setaria viridis) [10] = experiment: Preemergence herbicidal evaluation; assay type: in vivo, (L.) Beau; conditions: rated 4-5 weeks after treatment
How it was run: as §3

[11] = tested on: ECHCG (Echinochloa crus-galli); experiment: Preemergence herbicidal evaluation; assay type: in vivo, (L.) Beau; conditions: rated 4-5 weeks after treatment
How it was run: as §3

GALAP (Galium aparine) [12] = experiment: Postemergence herbicidal evaluation; assay type: in vivo; conditions: postemergence
How it was run: as §2

CYPIR (Cyperus iria) = experiment: Flooded paddy, preemergence weed control; assay type: in vivo; conditions: rated 3-4 weeks after treatment, 0-9 rating scale
How it was run: as §1

[13] = tested on: MOOVA (Monochoria vaginalis); experiment: Flooded paddy, preemergence weed control; assay type: in vivo, Presl.; conditions: rated 3-4 weeks after treatment, 0-9 rating scale
How it was run: as §1

[14] = tested on: TRZAWR (Wheat, Winter, cv Riband); experiment: Postemergence herbicidal evaluation; assay type: in vivo, Triticum aestivum; conditions: postemergence
How it was run: as §2

ORYSAT (Rice, Tebonnet) [15] = experiment: Preemergence herbicidal evaluation; assay type: in vivo, Oryza sativa, (L.) Tebonnet; conditions: rated 4-5 weeks after treatment
SETVI (Setaria viridis) [16] = experiment: Postemergence herbicidal evaluation; assay type: in vivo, (L.) Beau; conditions: postemergence
How it was run: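 Seedlings grown about two weeks were sprayed with compound in 50/50 acetone/water containing 0.5% TWEEN 20, at about 0.0040 to 1.000 kg/ha via nozzle at 40 psi. Plants were kept under greenhouse conditions and visually rated on a 0-9 scale versus control four to five weeks after treatment; replicate tests averaged.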

GALAP (Galium aparine) [17] = experiment: Preemergence herbicidal evaluation; assay type: in vivo; conditions: rated 4-5 weeks after treatment
How it was run: as §3

[18] = tested on: ABUTH (Abutilon theophrasti); experiment: Postemergence herbicidal evaluation; assay type: in vivo, Medic.; conditions: postemergence
How it was run: as §2

Compound: CC1=CC(C)(C)OC(c2nsc3ccc(-n4c(=O)cc(C(F)(F)F)n(C)c4=O)cc23)C1 (centres unmarked) [Compound 65, 3-[3-(3,6-dihydro-4,6,6-trimethyl-2H-pyran-2-yl)-1,2-benzisothiazol-5-yl]-1-methyl-6-(trifluoromethyl)uracil]
- herbicidal rating, SAGPY ([1]; rate 0.0080 kg/ha): 0.0
- herbicidal rating, SAGPY ([1]; rate 0.0320 kg/ha): 0.0
- herbicidal rating, SAGPY ([1]; rate 0.1250 kg/ha): 0.0
- ORYSAT herbicidal rating (ORYSAT (Rice, Tebonnet) [2]; rate 0.0320 kg/ha): 4.0
- ORYSAT herbicidal rating (ORYSAT (Rice, Tebonnet) [2]; rate 0.0620 kg/ha): 4.5
- AMBEL herbicidal rating ([3]; rate 0.0320 kg/ha): 9.0
- AMBEL herbicidal rating ([3]; rate 0.0620 kg/ha): 9.0
- CHEAL herbicidal rating ([4]; rate 0.0320 kg/ha): 7.0
- CHEAL herbicidal rating ([4]; rate 0.0620 kg/ha): 9.0
- CASOB herbicidal rating ([5]; rate 0.0320 kg/ha): 4.0
- CASOB herbicidal rating ([5]; rate 0.0620 kg/ha): 5.0
- Preemergence herbicidal rating AMBEL ([6]; Rate 0.0620 kg/ha): 8.0
- Preemergence herbicidal rating AMBEL ([6]; Rate 0.1250 kg/ha): 9.0
- Preemergence herbicidal rating AMBEL ([6]; Rate 0.2500 kg/ha): 9.0
- Preemergence herbicidal rating CHEAL ([7]; Rate 0.0620 kg/ha): 9.0
- Preemergence herbicidal rating CHEAL ([7]; Rate 0.1250 kg/ha): 9.0
- Preemergence herbicidal rating CHEAL ([7]; Rate 0.2500 kg/ha): 9.0
- Preemergence herbicidal rating CASOB ([8]; Rate 0.0620 kg/ha): 0.0
- Preemergence herbicidal rating CASOB ([8]; Rate 0.1250 kg/ha): 0.0
- Preemergence herbicidal rating CASOB ([8]; Rate 0.2500 kg/ha): 0.0
- IPOHE herbicidal rating ([9]; rate 0.0320 kg/ha): 9.0
- IPOHE herbicidal rating ([9]; rate 0.0620 kg/ha): 9.0
- Preemergence herbicidal rating SETVI (SETVI (Setaria viridis) [10]; Rate 0.0620 kg/ha): 9.0
- Preemergence herbicidal rating SETVI (SETVI (Setaria viridis) [10]; Rate 0.1250 kg/ha): 9.0
- Preemergence herbicidal rating SETVI (SETVI (Setaria viridis) [10]; Rate 0.2500 kg/ha): 9.0
- Preemergence herbicidal rating ECHCG ([11]; Rate 0.0620 kg/ha): 9.0
- Preemergence herbicidal rating ECHCG ([11]; Rate 0.1250 kg/ha): 9.0
- Preemergence herbicidal rating ECHCG ([11]; Rate 0.2500 kg/ha): 9.0
- GALAP herbicidal rating (GALAP (Galium aparine) [12]; rate 0.0320 kg/ha): 5.0
- GALAP herbicidal rating (GALAP (Galium aparine) [12]; rate 0.0620 kg/ha): 6.0
- herbicidal rating, CYPIR (CYPIR (Cyperus iria); rate 0.0080 kg/ha): 0.0
- herbicidal rating, CYPIR (CYPIR (Cyperus iria); rate 0.0320 kg/ha): 0.0
- herbicidal rating, CYPIR (CYPIR (Cyperus iria); rate 0.1250 kg/ha): 9.0
- herbicidal rating, MOOVA ([13]; rate 0.0080 kg/ha): 0.0
- herbicidal rating, MOOVA ([13]; rate 0.0320 kg/ha): 0.0
- herbicidal rating, MOOVA ([13]; rate 0.1250 kg/ha): 3.0
- TRZAWR herbicidal rating ([14]; rate 0.0320 kg/ha): 4.0
- TRZAWR herbicidal rating ([14]; rate 0.0620 kg/ha): 5.0
- Preemergence herbicidal rating ORYSAT (ORYSAT (Rice, Tebonnet) [15]; Rate 0.0620 kg/ha): 7.0
- Preemergence herbicidal rating ORYSAT (ORYSAT (Rice, Tebonnet) [15]; Rate 0.1250 kg/ha): 7.0
- Preemergence herbicidal rating ORYSAT (ORYSAT (Rice, Tebonnet) [15]; Rate 0.2500 kg/ha): 9.0
- SETVI herbicidal rating (SETVI (Setaria viridis) [16]; rate 0.0320 kg/ha): 3.0
- SETVI herbicidal rating (SETVI (Setaria viridis) [16]; rate 0.0620 kg/ha): 7.0
- Preemergence herbicidal rating GALAP (GALAP (Galium aparine) [17]; Rate 0.0620 kg/ha): 5.0
- Preemergence herbicidal rating GALAP (GALAP (Galium aparine) [17]; Rate 0.1250 kg/ha): 7.0
- Preemergence herbicidal rating GALAP (GALAP (Galium aparine) [17]; Rate 0.2500 kg/ha): 7.0
- ABUTH herbicidal rating ([18]; rate 0.0320 kg/ha): 9.0
- ABUTH herbicidal rating ([18]; rate 0.0620 kg/ha): 9.0

Compound: C[C@@H]1C[C@H](C)OC(c2nsc3cc(F)c(-n4c(=O)cc(C(F)(F)F)n(C)c4=O)cc23)O1 (stereo partly drawn) [Compound 67, 3-[3-[(4R,6S)-4,6-dimethyl-m-dioxan-2-yl]-6-fluoro-1,2-benzisothiazol-5-yl]-1-methyl-6-(trifluoromethyl)uracil]
- herbicidal rating, SAGPY ([1]; rate 0.0080 kg/ha): 1.5
- herbicidal rating, SAGPY ([1]; rate 0.0320 kg/ha): 7.0
- herbicidal rating, SAGPY ([1]; rate 0.1250 kg/ha): 7.0
- ORYSAT herbicidal rating (ORYSAT (Rice, Tebonnet) [2]; rate 0.0320 kg/ha): 4.5
- ORYSAT herbicidal rating (ORYSAT (Rice, Tebonnet) [2]; rate 0.0620 kg/ha): 5.5
- AMBEL herbicidal rating ([3]; rate 0.0320 kg/ha): 9.0
- AMBEL herbicidal rating ([3]; rate 0.0620 kg/ha): 9.0
- CHEAL herbicidal rating ([4]; rate 0.0320 kg/ha): 9.0
- CHEAL herbicidal rating ([4]; rate 0.0620 kg/ha): 9.0
- CASOB herbicidal rating ([5]; rate 0.0320 kg/ha): 9.0
- CASOB herbicidal rating ([5]; rate 0.0620 kg/ha): 9.0
- Preemergence herbicidal rating AMBEL ([6]; Rate 0.0620 kg/ha): 9.0
- Preemergence herbicidal rating AMBEL ([6]; Rate 0.1250 kg/ha): 9.0
- Preemergence herbicidal rating CHEAL ([7]; Rate 0.0620 kg/ha): 9.0
- Preemergence herbicidal rating CHEAL ([7]; Rate 0.1250 kg/ha): 9.0
- Preemergence herbicidal rating CASOB ([8]; Rate 0.0620 kg/ha): 5.5
- Preemergence herbicidal rating CASOB ([8]; Rate 0.1250 kg/ha): 5.0
- IPOHE herbicidal rating ([9]; rate 0.0320 kg/ha): 9.0
- IPOHE herbicidal rating ([9]; rate 0.0620 kg/ha): 9.0
- Preemergence herbicidal rating SETVI (SETVI (Setaria viridis) [10]; Rate 0.0620 kg/ha): 9.0
- Preemergence herbicidal rating SETVI (SETVI (Setaria viridis) [10]; Rate 0.1250 kg/ha): 9.0
- Preemergence herbicidal rating ECHCG ([11]; Rate 0.0620 kg/ha): 9.0
- Preemergence herbicidal rating ECHCG ([11]; Rate 0.1250 kg/ha): 9.0
- GALAP herbicidal rating (GALAP (Galium aparine) [12]; rate 0.0320 kg/ha): 6.0
- GALAP herbicidal rating (GALAP (Galium aparine) [12]; rate 0.0620 kg/ha): 5.0
- herbicidal rating, CYPIR (CYPIR (Cyperus iria); rate 0.0080 kg/ha): 4.5
- herbicidal rating, CYPIR (CYPIR (Cyperus iria); rate 0.0320 kg/ha): 7.0
- herbicidal rating, CYPIR (CYPIR (Cyperus iria); rate 0.1250 kg/ha): 9.0
- herbicidal rating, MOOVA ([13]; rate 0.0080 kg/ha): 0.0
- herbicidal rating, MOOVA ([13]; rate 0.0320 kg/ha): 9.0
- herbicidal rating, MOOVA ([13]; rate 0.1250 kg/ha): 9.0
- TRZAWR herbicidal rating ([14]; rate 0.0320 kg/ha): 4.0
- TRZAWR herbicidal rating ([14]; rate 0.0620 kg/ha): 4.0
- Preemergence herbicidal rating ORYSAT (ORYSAT (Rice, Tebonnet) [15]; Rate 0.0620 kg/ha): 9.0
- Preemergence herbicidal rating ORYSAT (ORYSAT (Rice, Tebonnet) [15]; Rate 0.1250 kg/ha): 9.0
- SETVI herbicidal rating (SETVI (Setaria viridis) [16]; rate 0.0320 kg/ha): 9.0
- SETVI herbicidal rating (SETVI (Setaria viridis) [16]; rate 0.0620 kg/ha): 7.0
- Preemergence herbicidal rating GALAP (GALAP (Galium aparine) [17]; Rate 0.0620 kg/ha): 8.0
- Preemergence herbicidal rating GALAP (GALAP (Galium aparine) [17]; Rate 0.1250 kg/ha): 9.0
- ABUTH herbicidal rating ([18]; rate 0.0320 kg/ha): 9.0
- ABUTH herbicidal rating ([18]; rate 0.0620 kg/ha): 9.0
